Laboratory results from ChEMBL document CHEMBL1201862, “PubChem BioAssay data set” (2004).
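Where inhibition never reached the appropriate level, the endpoint shown equals the highest concentration tested. Otherwise, values were interpolated linearly from a five-concentration, 48-hour dose response in 96-well plates. The concentration for 50% growth inhibition is given as GI50.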 The source made the active and inactive calls. Cut-off read from the data, not from the text of the source: active = GI50 up to about 1.1 µM and inactive = higher.

Assays:
Experiment in all cases: inhibition of tumour cell growth, NCI panel, 48 h
SK-MEL-28 = tested on: SK-MEL-28
KM12 = tested on: KM12
SF-539 = tested on: SF-539
PC-3 = tested on: PC-3
SK-MEL-2 = tested on: SK-MEL-2
T47D = tested on: T47D
OVCAR-3 = tested on: OVCAR-3
HT-29 = tested on: HT-29
TK-10 = tested on: TK-10
DU-145 = tested on: DU-145
SNB-19 = tested on: SNB-19
MDA-N = tested on: MDA-N
HCT-116 = tested on: HCT-116
786-0 = tested on: 786-0
UACC-62 = tested on: UACC-62
SN12C = tested on: SN12C
M14 = tested on: M14
UACC-257 = tested on: UACC-257
A498 = tested on: A498

Compound | GI50 (SK-MEL-28) | GI50 (KM12) | GI50 (SF-539) | GI50 (PC-3) | GI50 (SK-MEL-2) | GI50 (T47D) | GI50 (OVCAR-3) | GI50 (HT-29) | GI50 (TK-10) | GI50 (DU-145) | GI50 (SNB-19) | GI50 (MDA-N) | GI50 (HCT-116) | GI50 (786-0) | GI50 (UACC-62) | GI50 (SN12C) | GI50 (M14) | GI50 (UACC-257) | GI50 (A498)
CCCCc1ccc(-n2sc3ncccc3c2=O)cc1 | 13.9 µM (inactive) | 13.4 µM (inactive) | 21 µM (inactive) | 11 µM (inactive) | 12.2 µM (inactive) | 13 µM (inactive) | 10.2 µM (inactive) | 16.1 µM (inactive) | 14.4 µM (inactive) | 21 µM (inactive) | 21.9 µM (inactive) | 13.9 µM (inactive) | 11.6 µM (inactive) | 9.42 µM (inactive) | 12.4 µM (inactive) | 16.4 µM (inactive) | 11.2 µM (inactive) | 16.3 µM (inactive) | –
CC(C)(CC#N)c1cc(CC(C)(C)c2cc(CC(C)(C)c3cc(C(C)(C)C4(C)OCCO4)no3)no2)no1 | > 100 µM (inactive) | > 100 µM (inactive) | – | 39.7 µM (inactive) | 42.7 µM (inactive) | 9.08 µM (inactive) | 56 µM (inactive) | > 100 µM (inactive) | 51.5 µM (inactive) | 50.4 µM (inactive) | 21.8 µM (inactive) | 51.1 µM (inactive) | 51.4 µM (inactive) | 17 µM (inactive) | 41.9 µM (inactive) | 25.8 µM (inactive) | > 100 µM (inactive) | 67.6 µM (inactive) | 28.9 µM (inactive)
CCN(CC)CCSc1nc(-c2c[nH]c3nc(C)ccc3c2=O)n[nH]1 | > 100 µM (inactive) | > 100 µM (inactive) | – | > 100 µM (inactive) | > 100 µM (inactive) | > 100 µM (inactive) | > 100 µM (inactive) | > 100 µM (inactive) | > 100 µM (inactive) | > 100 µM (inactive) | > 100 µM (inactive) | > 100 µM (inactive) | > 100 µM (inactive) | > 100 µM (inactive) | > 100 µM (inactive) | > 100 µM (inactive) | > 100 µM (inactive) | > 100 µM (inactive) | > 100 µM (inactive)
CCOC(=O)C1C(O)CC2c3ccccc3-c3ccccc3C21 (centres undefined) | > 100 µM (inactive) | 36.1 µM (inactive) | – | > 100 µM (inactive) | > 100 µM (inactive) | > 100 µM (inactive) | > 100 µM (inactive) | 68.1 µM (inactive) | 55.2 µM (inactive) | > 100 µM (inactive) | 33.5 µM (inactive) | 69 µM (inactive) | 19.8 µM (inactive) | 30.4 µM (inactive) | 44.4 µM (inactive) | > 100 µM (inactive) | > 100 µM (inactive) | > 100 µM (inactive) | 20.2 µM (inactive)
COc1c(C(=O)/C(=N/Nc2ccccc2)C(C)=O)c(O)c(OC)c2occc12 | > 100 µM (inactive) | 27.7 µM (inactive) | > 100 µM (inactive) | 27 µM (inactive) | 67 µM (inactive) | 19.3 µM (inactive) | 67.9 µM (inactive) | 37.3 µM (inactive) | 77.1 µM (inactive) | > 100 µM (inactive) | 36.1 µM (inactive) | 32.1 µM (inactive) | 34 µM (inactive) | > 100 µM (inactive) | 20.5 µM (inactive) | 63.7 µM (inactive) | > 100 µM (inactive) | 34.9 µM (inactive) | –
CC(C)(CO)CNc1nc(N)nc(Cl)c1N | > 100 µM (inactive) | > 100 µM (inactive) | > 100 µM (inactive) | > 100 µM (inactive) | > 100 µM (inactive) | 58.5 µM (inactive) | > 100 µM (inactive) | > 100 µM (inactive) | > 100 µM (inactive) | > 100 µM (inactive) | > 100 µM (inactive) | > 100 µM (inactive) | > 100 µM (inactive) | > 100 µM (inactive) | > 100 µM (inactive) | > 100 µM (inactive) | – | 42.9 µM (inactive) | –
CC(C)CCCC(C)[C@H]1CCC2[C@@H]3CCC4Cc5nc6c(nc5C[C@]4(C)C3CC[C@@]21C)CC1CC[C@@H]2C(C[C@@H](O)[C@@]3(C)C2C[C@@H]2OC4(CCC(C)CO4)C(C)[C@@H]23)[C@@]1(C)C6 (some centres undefined) | > 100 µM (inactive) | > 100 µM (inactive) | > 100 µM (inactive) | > 100 µM (inactive) | – | > 100 µM (inactive) | > 100 µM (inactive) | > 100 µM (inactive) | > 100 µM (inactive) | > 100 µM (inactive) | > 100 µM (inactive) | > 100 µM (inactive) | > 100 µM (inactive) | > 100 µM (inactive) | > 100 µM (inactive) | > 100 µM (inactive) | > 100 µM (inactive) | > 100 µM (inactive) | –
O=C(O)c1ccc2c(c1)CC1(C2)Cc2ccccc2C1=O (centres undefined) | > 100 µM (inactive) | > 100 µM (inactive) | > 100 µM (inactive) | > 100 µM (inactive) | > 100 µM (inactive) | > 100 µM (inactive) | > 100 µM (inactive) | > 100 µM (inactive) | > 100 µM (inactive) | > 100 µM (inactive) | > 100 µM (inactive) | > 100 µM (inactive) | > 100 µM (inactive) | > 100 µM (inactive) | > 100 µM (inactive) | > 100 µM (inactive) | 51.8 µM (inactive) | > 100 µM (inactive) | –
Cc1ccc(S(=O)(=O)NNC(=O)c2cc(C)ccc2NC(=O)C23CC4CC(CC(C4)C2)C3)cc1 | – | 75.3 µM (inactive) | 52.1 µM (inactive) | 34.5 µM (inactive) | – | 22.2 µM (inactive) | 34.4 µM (inactive) | > 100 µM (inactive) | 41.8 µM (inactive) | 29.6 µM (inactive) | 16.9 µM (inactive) | > 100 µM (inactive) | 31.2 µM (inactive) | 21.9 µM (inactive) | 39.7 µM (inactive) | 44.4 µM (inactive) | 84.7 µM (inactive) | 25.4 µM (inactive) | –
N#Cc1c(-c2ccc(Cl)cc2)c2c(n(C3OC(CO)C(O)C(O)C3O)c1=S)CCC2 (centres undefined) | 17.8 µM (inactive) | 41.9 µM (inactive) | 19.2 µM (inactive) | 28.4 µM (inactive) | 34.5 µM (inactive) | 20.5 µM (inactive) | 28 µM (inactive) | 29 µM (inactive) | 37.6 µM (inactive) | 42.4 µM (inactive) | 22 µM (inactive) | 34.5 µM (inactive) | 34.4 µM (inactive) | 30.9 µM (inactive) | 17.1 µM (inactive) | 33.9 µM (inactive) | 22.6 µM (inactive) | 33.4 µM (inactive) | –
COc1cccc2c1C(=O)c1c(O)c3c(c(O)c1C2=O)C[C@@](O)(C(=O)CO)C[C@@H]3OC1CC(N2CCOCC2C#N)C(O)C(C)O1 (some centres undefined) | 9.73e-05 µM (active) | 2.55e-05 µM (active) | 2.41e-05 µM (active) | 0.000107 µM (active) | – | 0.000102 µM (active) | 2.27e-05 µM (active) | 2.07e-05 µM (active) | 0.000149 µM (active) | 4.15e-05 µM (active) | 3.52e-05 µM (active) | 9.08e-05 µM (active) | 2.71e-05 µM (active) | 0.001 µM (active) | 9.98e-06 µM (active) | 2.14e-05 µM (active) | 5.42e-05 µM (active) | 5.97e-05 µM (active) | 2.58e-05 µM (active)
